Experimental data reported in patent US5352591A, “Aldolase enzyme process for making 5-azido-5-deoxy-hexulose-1-phosphate” (The Scripps Research Institute, priority 1993, dated 1994).
“Also recorded” adds a separate entry of the source. Read-outs that look alike come from different tables or passages of the source.

What was measured:
β-Glucosidase (almond) [1] = assay: Inhibition of β-glucosidase; type: biochemical; settings: pH 6.5
Experimental: The following solutions were prepared for enzymatic assay: 1. […] The assay enzyme solution was prepared by dissolving 20 milligrams of solid protein (4.8 Units/milligram solid) in 6 mL PIPES-NaOAc buffer solution. […] The following illustrates the procedure in detail.

[2] = target: T1, β-Galactosidase (E. coli) (Escherichia coli, UniProt P00722); assay: Inhibition of β-galactosidase; type: biochemical; settings: at 1 mM; pH 6.5
T1 construct: purchased Sigma
Experimental: (§1) The following solutions were prepared for enzymatic assay:
6. β-D-Galactosidase: 0.5 milligrams of solid protein (345 Units/milligram) were dissolved in 1 mL PIPES-NaOAc buffer solution.
(§2) The following illustrates the procedure in detail.

[3] = target: T2, α-Mannosidase (jack bean) (Canavalia ensiformis, UniProt C0HJB3); assay: Inhibition of α-mannosidase; type: biochemical
T2 construct: purchased Sigma
T2 sequence (C0HJB3 1-562 limits assumed): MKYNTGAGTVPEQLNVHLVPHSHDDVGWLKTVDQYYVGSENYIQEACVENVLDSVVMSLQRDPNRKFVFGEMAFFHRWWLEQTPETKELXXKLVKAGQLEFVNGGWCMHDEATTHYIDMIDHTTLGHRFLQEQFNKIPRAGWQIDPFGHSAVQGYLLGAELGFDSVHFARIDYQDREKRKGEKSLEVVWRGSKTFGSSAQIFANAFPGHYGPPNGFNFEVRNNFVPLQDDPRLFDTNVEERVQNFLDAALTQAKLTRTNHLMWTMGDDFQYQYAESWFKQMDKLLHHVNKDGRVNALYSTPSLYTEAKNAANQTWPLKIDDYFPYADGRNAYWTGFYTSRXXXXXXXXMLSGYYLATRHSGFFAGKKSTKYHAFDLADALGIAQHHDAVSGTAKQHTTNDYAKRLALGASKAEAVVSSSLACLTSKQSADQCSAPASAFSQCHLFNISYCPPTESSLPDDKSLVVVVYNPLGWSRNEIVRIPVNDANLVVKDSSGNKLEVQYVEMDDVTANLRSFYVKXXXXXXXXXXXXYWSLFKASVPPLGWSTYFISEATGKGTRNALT
T2 sequence (C0HJB3 563-981 limits assumed): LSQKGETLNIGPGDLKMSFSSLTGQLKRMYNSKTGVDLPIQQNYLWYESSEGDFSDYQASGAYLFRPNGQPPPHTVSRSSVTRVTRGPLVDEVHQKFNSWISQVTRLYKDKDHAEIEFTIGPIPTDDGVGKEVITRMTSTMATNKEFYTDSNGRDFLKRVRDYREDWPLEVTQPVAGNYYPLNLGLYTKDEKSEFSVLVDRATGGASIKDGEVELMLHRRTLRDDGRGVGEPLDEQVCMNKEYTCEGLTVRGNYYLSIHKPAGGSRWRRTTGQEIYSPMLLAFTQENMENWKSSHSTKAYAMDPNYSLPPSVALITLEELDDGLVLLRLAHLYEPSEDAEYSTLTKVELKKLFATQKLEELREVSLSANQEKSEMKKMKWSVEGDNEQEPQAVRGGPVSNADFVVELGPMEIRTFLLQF
Experimental: as §1
4. α-D-Mannosidase: 5 milligrams of solid protein were suspended in I mL of 3M ammonium sulfate [(NH4)2 SO4 ] and 0.1M zinc acetate (ZnOAc).
as §2

[4] = target: T3, α-Glucosidase (brewer yeast) (Saccharomyces cerevisiae, UniProt P53341); assay: Inhibition of α-glucosidase (Lineweaver-Burk, p-nitrophenol release); type: biochemical; settings: pH 6.5
T3 construct: purchased Sigma
Experimental: The following solutions were prepared for enzymatic assay: 1. […] The following illustrates the procedure in detail.

[5] = test system: AIDS virus gp160 envelope protein precursor; settings: Walker et al., Proc. Natl. Acad. Sci. 1987; cited from earlier work
[6] = target: T2, α-Mannosidase (jack bean); settings: from Fleet et al. 1985; cited from earlier work
glycosidases = settings: Fleet et al., Tetrahedron Lett. 1985, 26, 3127; cited from earlier work
β-Glucosidase (almond) [7] = settings: from Fleet et al. 1985; cited from earlier work
[8] = target: T3, α-Glucosidase (brewer yeast); settings: from Fleet et al., Tetrahedron Lett., 1985, 26:3127; cited from earlier work
β-Xylosidase (A. niger) = β-Xylosidase (A. niger) (Aspergillus niger, UniProt O00089); settings: from Fleet et al. 1985; cited from earlier work
[9] = target: T1, β-Galactosidase (E. coli); settings: from Fleet et al. 1985; cited from earlier work
α-L-Fucosidase = target: T4, α-L-Fucosidase (Homo sapiens, UniProt P04066); assay: α-L-Fucosidase inhibition (fuc-pNP hydrolysis); type: biochemical
T4 sequence (P04066 32-466): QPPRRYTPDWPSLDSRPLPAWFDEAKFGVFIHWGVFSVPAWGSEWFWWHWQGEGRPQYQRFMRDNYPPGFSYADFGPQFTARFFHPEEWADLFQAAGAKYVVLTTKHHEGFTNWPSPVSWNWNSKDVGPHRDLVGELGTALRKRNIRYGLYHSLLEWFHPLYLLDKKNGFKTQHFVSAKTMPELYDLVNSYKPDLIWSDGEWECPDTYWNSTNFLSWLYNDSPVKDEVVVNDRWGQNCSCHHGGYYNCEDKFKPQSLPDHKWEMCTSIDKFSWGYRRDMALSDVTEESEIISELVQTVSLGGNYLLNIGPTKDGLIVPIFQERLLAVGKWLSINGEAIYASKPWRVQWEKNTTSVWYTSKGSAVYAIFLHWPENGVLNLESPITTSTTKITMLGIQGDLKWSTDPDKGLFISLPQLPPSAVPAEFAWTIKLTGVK
Experimental: α-L-Fucosidase activity was measured by incubating the enzyme (0.005 Units) with fuc-pNP ([…]) in 0.4 ml of 50 mM acetate buffer, pH 5.5 for 20 minutes at 25° C. in the absence and presence of the azasugars of the present invention. The reaction was stopped by the addition of 0.8 ml of 2 mM glycine buffer, pH 10.5. The amount of formed p-nitrophenol was determined by optical density spectroscopy at a wavelength of 400 nm.

T3 sequence (P53341 whole entry): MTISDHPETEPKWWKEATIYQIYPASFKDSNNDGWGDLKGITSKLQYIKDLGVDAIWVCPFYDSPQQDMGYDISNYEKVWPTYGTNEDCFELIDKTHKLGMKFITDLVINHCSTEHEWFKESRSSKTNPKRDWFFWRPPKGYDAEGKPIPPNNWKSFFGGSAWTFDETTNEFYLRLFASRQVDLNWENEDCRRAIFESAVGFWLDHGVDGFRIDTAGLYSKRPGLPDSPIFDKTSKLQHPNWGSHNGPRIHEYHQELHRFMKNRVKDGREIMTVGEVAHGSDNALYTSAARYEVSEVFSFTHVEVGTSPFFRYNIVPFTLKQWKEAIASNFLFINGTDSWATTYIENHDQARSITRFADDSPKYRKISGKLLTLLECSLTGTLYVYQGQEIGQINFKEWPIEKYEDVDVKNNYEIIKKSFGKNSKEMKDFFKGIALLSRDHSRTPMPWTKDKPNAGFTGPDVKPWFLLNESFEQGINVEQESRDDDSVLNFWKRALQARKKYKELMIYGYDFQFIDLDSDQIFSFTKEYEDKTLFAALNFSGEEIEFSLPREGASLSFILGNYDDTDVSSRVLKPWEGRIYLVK
T1 sequence (P00722 2-1024 limits assumed): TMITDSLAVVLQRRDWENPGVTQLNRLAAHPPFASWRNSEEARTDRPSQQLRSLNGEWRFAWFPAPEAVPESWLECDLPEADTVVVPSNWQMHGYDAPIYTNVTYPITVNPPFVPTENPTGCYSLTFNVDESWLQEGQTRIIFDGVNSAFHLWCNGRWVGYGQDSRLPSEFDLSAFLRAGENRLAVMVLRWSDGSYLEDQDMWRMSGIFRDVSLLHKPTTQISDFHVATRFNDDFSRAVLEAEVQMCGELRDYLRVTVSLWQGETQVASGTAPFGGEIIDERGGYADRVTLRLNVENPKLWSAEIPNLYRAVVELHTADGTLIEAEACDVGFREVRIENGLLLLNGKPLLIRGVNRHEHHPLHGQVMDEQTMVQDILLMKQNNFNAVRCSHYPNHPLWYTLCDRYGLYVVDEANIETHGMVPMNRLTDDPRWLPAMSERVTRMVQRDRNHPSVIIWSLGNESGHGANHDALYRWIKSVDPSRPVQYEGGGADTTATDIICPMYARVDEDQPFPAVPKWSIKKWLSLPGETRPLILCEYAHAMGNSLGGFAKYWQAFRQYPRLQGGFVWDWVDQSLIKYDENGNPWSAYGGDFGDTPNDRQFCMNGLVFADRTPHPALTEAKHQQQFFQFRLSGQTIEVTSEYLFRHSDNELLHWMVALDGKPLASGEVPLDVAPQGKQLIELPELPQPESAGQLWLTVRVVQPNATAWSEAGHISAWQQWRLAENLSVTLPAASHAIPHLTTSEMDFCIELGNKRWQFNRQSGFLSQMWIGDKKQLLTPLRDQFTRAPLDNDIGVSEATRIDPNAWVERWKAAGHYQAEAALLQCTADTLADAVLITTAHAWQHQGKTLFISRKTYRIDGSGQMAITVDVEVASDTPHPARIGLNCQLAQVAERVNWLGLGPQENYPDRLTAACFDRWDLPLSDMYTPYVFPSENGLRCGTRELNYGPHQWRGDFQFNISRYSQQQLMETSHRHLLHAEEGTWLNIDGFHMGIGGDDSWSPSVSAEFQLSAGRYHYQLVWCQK
β-Xylosidase (A. niger), sequence (O00089 27-804): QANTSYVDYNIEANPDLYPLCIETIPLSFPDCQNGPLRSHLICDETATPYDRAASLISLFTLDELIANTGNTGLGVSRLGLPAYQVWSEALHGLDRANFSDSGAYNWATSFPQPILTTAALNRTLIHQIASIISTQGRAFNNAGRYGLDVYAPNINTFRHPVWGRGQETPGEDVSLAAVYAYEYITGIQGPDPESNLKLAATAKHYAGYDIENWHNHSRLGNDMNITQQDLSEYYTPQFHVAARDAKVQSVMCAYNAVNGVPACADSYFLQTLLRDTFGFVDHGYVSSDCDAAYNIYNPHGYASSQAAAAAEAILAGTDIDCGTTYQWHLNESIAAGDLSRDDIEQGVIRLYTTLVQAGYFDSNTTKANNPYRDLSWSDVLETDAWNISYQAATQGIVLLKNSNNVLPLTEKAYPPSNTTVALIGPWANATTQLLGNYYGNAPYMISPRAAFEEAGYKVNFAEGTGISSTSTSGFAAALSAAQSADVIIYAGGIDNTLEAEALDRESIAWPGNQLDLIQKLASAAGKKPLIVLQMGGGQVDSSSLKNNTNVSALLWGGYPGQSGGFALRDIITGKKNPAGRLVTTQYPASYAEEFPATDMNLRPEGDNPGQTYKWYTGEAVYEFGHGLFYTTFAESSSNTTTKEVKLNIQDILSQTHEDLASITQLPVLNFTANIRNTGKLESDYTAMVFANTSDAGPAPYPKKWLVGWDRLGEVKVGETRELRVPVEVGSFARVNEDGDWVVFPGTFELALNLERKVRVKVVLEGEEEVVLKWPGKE

## OC[C@@H]1N[C@H](CO)[C@@H](O)[C@@H]1O [Compound 2, (2R,5S)-dihydroxymethyl-(3R,4R)-dihydroxypyrrolidine]
β-Glucosidase (almond) [1]
  Ki: 19 µM
[2]
  Ki Values, β-Galactosidase (E. coli): No inhibition
[3]
  inhibition of an α-mannosidase (in words): significant inhibition
[3]; pH 6.5
  Ki: 3.1 mM
[4]
  Ki: 2800 nM

## OC1CN2CCC(O)C2C(O)C1O (stereo not shown) [castanospermine, 1,6,7,8tetrahydroxyoctahydroindolizine]
[5]
  inhibition of processing of the AIDS virus gp160 envelope protein precursor (in words): inhibit the processing

## OC[C@H]1N[C@H](CO)[C@@H](O)[C@@H]1O [Compound X, (2R,5R)-dihydroxymethyl-(3R,4R)-dihydroxypyrrolidine]
[6]
  Ki Values, α-Mannosidase (jack bean): no inhibitory activity; also recorded: no inhibition
glycosidases
  inhibition against glycosidases, including α- and β-glucosidases and β-xylosidase (in words): broad spectrum of inhibition
β-Glucosidase (almond) [7]
  Ki: 7.8 µM
[8]
  Ki: 3.3 µM
β-Xylosidase (A. niger)
  Ki: 250 µM
[9]
  Ki Values, β-Galactosidase (E. coli): No inhibition

## C[C@@H]1OC(O)[C@@H](O)[C@H](O)[C@@H]1O (stereo partly drawn) [L-fucose]
α-L-Fucosidase; versus fuc-pNP
  type of inhibition of fucosidase: competitive inhibitor
α-L-Fucosidase; versus fuc-pNP, 50 mM acetate buffer pH 5.5, 25° C., read-out: Ki, α-L-Fucosidase inhibition
  Ki: 300 µM

## Oc1ccccc1 [phenol]
α-L-Fucosidase
  Ki: 180 ± 20 µM
α-L-Fucosidase; versus fuc-pNP
  type of inhibition of fucosidase: noncompetitive inhibitor
